From US7214675B2, “Urea substituted imidazoquinoline ethers” (3M Innovative Properties Company, priority 2000, dated 2007) come the findings set out here.

A word on the minimal effective concentration: it is the lowest level tested that produced the effect sought. What is called melting point is the temperature, or range, at which the solid turns liquid.

The first series relates to interferon (α) induction in human peripheral blood mononuclear cells (PBMC). In words: Cytokine induction in human cells: interferon (α) secreted by PBMC, ELISA. The format is cell-based. The conditions noted are these: lowest concentration found to induce interferon, incubated 18 to 24 hours at 37° C. An excerpt:
(§1) An in vitro human blood cell system is used to assess cytokine induction. Activity is based on the measurement of interferon and tumor necrosis factor (α) (IFN and TNF, respectively) secreted into culture media as described by Testerman et. al. In “Cytokine Induction by the Immunomodulators Imiquimod and S-27609”, Journal of Leukocyte Biology, 58, 365–372 (September, 1995).
(§2) Whole blood from healthy human donors is collected by venipuncture into EDTA vacutainer tubes. Peripheral blood mononuclear cells (PBMC) are separated from whole blood by density gradient centrifugation using Histopaque®-1077. Blood is diluted 1:1 with Dulbecco's Phosphate Buffered Saline (DPBS) or Hank's Balanced Salts Solution (HBSS). The PBMC layer is collected and washed twice with DPBS or HBSS and resuspended at 4×10^6 cells/mL in RPMI complete. The PBMC suspension is added to 48 well flat bottom sterile tissue culture plates (Costar, Cambridge, Mass. or Becton Dickinson Labware, Lincoln Park, N.J.) containing an equal volume of RPMI complete media containing test compound.
(§3) The compounds are solubilized in dimethyl sulfoxide (DMSO). The DMSO concentration should not exceed a final concentration of 1% for addition to the culture wells. The compounds are generally tested at concentrations ranging from 30–0.014 μM.
(§4) The solution of test compound is added at 60 μM to the first well containing RPMI complete and serial 3 fold dilutions are made in the wells. The PBMC suspension is then added to the wells in an equal volume, bringing the test compound concentrations to the desired range (30–0.014 μM). The final concentration of PBMC suspension is 2×10^6 cells/mL. The plates are covered with sterile plastic lids, mixed gently and then incubated for 18 to 24 hours at 37° C. in a 5% carbon dioxide atmosphere.
(§5) Following incubation the plates are centrifuged for 10 minutes at 1000 rpm (˜200×g) at 4° C. The cell-free culture supernatant is removed with a sterile polypropylene pipet and transferred to sterile polypropylene tubes. Samples are maintained at −30 to −70° C. until analysis. The samples are analyzed for interferon (α) by ELISA and for tumor necrosis factor (α) by ELISA or IGEN Assay
Interferon (α) concentration is determined by ELISA using a Human Multi-Species kit from PBL Biomedical Laboratories, New Brunswick, N.J. Results are expressed in pg/mL.
(§6) The table below lists the lowest concentration found to induce interferon and the lowest concentration found to induce tumor necrosis factor for each compound.
In turn, `COCCc1nc2c(N)nc3ccccc3c2n1CCOCCN(C)C(=O)Nc1ccccc1` [Example 3, N-(2-{2-[4-amino-2-(2-methoxyethyl)-1H-imidazo[4,5-c]quinolin-1-yl]ethoxy}ethyl)-N-methyl-N′-phenylurea] showed a minimal effective concentration of 0.01 µM.

The test system of another series is tumor necrosis factor (α) induction in human peripheral blood mononuclear cells (PBMC). In words: Cytokine induction in human cells: tumor necrosis factor (α) secreted by PBMC, ELISA or IGEN assay. The format is cell-based. The conditions noted are these: lowest concentration found to induce tumor necrosis factor, incubated 18 to 24 hours at 37° C.
Source text: as §1, §2, §3, §4, §5
Tumor necrosis factor (α) (TNF) concentration is determined using ELISA kits available from Biosource International, Camarillo, Calif. Alternately, the TNF concentration can be determined by Origen® M-Series Immunoassay and read on an IGEN M-8 analyzer from IGEN International, Gaithersburg, Md. The immunoassay uses a human TNF capture and detection antibody pair from Biosource International, Camarillo, Calif. Results are expressed in pg/mL.
as §6
On the technique in general: ELISA stands for enzyme-linked immunosorbent assay.
Regarding `COCCc1nc2c(N)nc3ccccc3c2n1CCOCCN(C)C(=O)Nc1ccccc1` [Example 3, N-(2-{2-[4-amino-2-(2-methoxyethyl)-1H-imidazo[4,5-c]quinolin-1-yl]ethoxy}ethyl)-N-methyl-N′-phenylurea], the minimal effective concentration is 0.37 µM.

Test system in a further series: not given
Test: not given
Conditions: not given
The compound `CCc1nc2c(N)nc3ccccc3c2n1CCOCCNC(=O)N1CCOCC1` [Example 52, N-{2-[2-(4-amino-2-ethyl-1H-imidazo[4,5-c]quinolin-1-yl)ethoxy]ethyl}morpholine-4-carboxamide] had a melting point of 182 to 184 °C.
Regarding `COCCc1nc2c(N)nc3ccccc3c2n1CCOCCN(C)C(=O)Nc1ccccc1` [Example 3, N-(2-{2-[4-amino-2-(2-methoxyethyl)-1H-imidazo[4,5-c]quinolin-1-yl]ethoxy}ethyl)-N-methyl-N′-phenylurea], the melting point lay in the range of 184.8 to 185.8 °C.
`COCCc1nc2c(N)nc3c(c2n1CCOCCN(C)C(=O)Nc1ccccc1)CCCC3` [Example 4, N-(2-{2-[4-amino-2-(2-methoxyethyl)-6,7,8,9-tetrahydro-1H-imidazo[4,5-c]quinolin-1-yl]ethoxy}ethyl)-N-methyl-N′-phenylurea]: the melting point fell in the range of 167.7 to 170 °C.
Compound `CCOCc1nc2c(N)nc3ccccc3c2n1CCOCCNC(=O)NC1CCCCC1` [Example 54, N-(2-{2-[4-amino-2-(ethoxymethyl)-1H-imidazo[4,5-c]quinolin-1-yl]ethoxy}ethyl)-N′cyclohexylurea] registered a melting point of 161 to 164 °C.
The same measure, in the same setting: the result for `COCCc1nc2c(N)nc3c(c2n1CCOCCNC(=O)Nc1ccccc1)CCCC3` [Example 2, N-(2-{2-[4-amino-2-(2-methoxyethyl)-6,7,8,9-tetrahydro-1H-imidazo[4,5-c]quinolin-1-yl]ethoxy}ethyl)-N′-phenylurea] reads 180 to 182 °C; that for `Cc1nc2c(N)nc3ccccc3c2n1CCOCCNC(=O)NC1CCCCC1` [Example 49, N-{2-[2-(4-amino-2-methyl-1H-imidazo[4,5-c]quinolin-1-yl)ethoxy]ethyl}-N′-cyclohexylurea], 207 to 209 °C; that for `COCCc1nc2c(N)nc3ccccc3c2n1CCOCCN(C)C(=O)N1CCOCC1` [Example 6, N-(2-{2-[4-amino-2-(2-methoxyethyl)-1H-imidazo[4,5-c]quinolin-1-yl]ethoxy}ethyl)-N-methylmorpholine-4-carboxamide], 121.8 to 122.3 °C.
Still for that read-out and setting: the result for `CCOCc1nc2c(N)nc3ccccc3c2n1CCOCCNC(=O)Nc1ccccc1` [Example 53, N-(2-{2-[4-amino-2-(ethoxymethyl)-1H-imidazo[4,5-c]quinolin-1-yl]ethoxy}ethyl)-N′-phenylurea] reads 183 to 186 °C; that for `CCOCc1nc2c(N)nc3ccccc3c2n1CCOCCNC(=O)N1CCOCC1` [Example 55, N-(2-{2-[4-amino-2-(ethoxymethyl)-1H-imidazo[4,5-c]quinolin-1-yl]ethoxy}ethyl)morpholine-4-carboxamide], 178 to 181 °C.
On the same count and under the same terms, the result for `Cc1nc2c(N)nc3ccccc3c2n1CCOCCNC(=O)Nc1ccccc1` [Example 48, N-{2-[2-(4-amino-2-methyl-1H-imidazo[4,5-c]quinolin-1-yl)ethoxy]ethyl}-N′-phenylurea] reads 193 to 195 °C.
